US5145854A, “1-formyl-5,8,10-trideazafolates” (priority 1991, dated 1992)
Where two headings read alike, the source gives them in different places.

Legend:
[1] = target: T1, hog liver glycinamide ribonucleotide formyltransferase (GARFTase) (Sus scrofa, UniProt A0A8W4FJW8); assay: Inhibition of hog liver glycinamide ribonucleotide formyltransferase; assay type: biochemical; conditions: for IC50: hog liver enzyme, (R,S) diastereomer mixture where marked, read-out: I50 (μM) GARFTase
T1 construct: hog liver glycinamide ribonucleotide formyltransferase; from tissue; host or cells: hog liver
T1 sequence (A0A8W4FJW8 1-1009): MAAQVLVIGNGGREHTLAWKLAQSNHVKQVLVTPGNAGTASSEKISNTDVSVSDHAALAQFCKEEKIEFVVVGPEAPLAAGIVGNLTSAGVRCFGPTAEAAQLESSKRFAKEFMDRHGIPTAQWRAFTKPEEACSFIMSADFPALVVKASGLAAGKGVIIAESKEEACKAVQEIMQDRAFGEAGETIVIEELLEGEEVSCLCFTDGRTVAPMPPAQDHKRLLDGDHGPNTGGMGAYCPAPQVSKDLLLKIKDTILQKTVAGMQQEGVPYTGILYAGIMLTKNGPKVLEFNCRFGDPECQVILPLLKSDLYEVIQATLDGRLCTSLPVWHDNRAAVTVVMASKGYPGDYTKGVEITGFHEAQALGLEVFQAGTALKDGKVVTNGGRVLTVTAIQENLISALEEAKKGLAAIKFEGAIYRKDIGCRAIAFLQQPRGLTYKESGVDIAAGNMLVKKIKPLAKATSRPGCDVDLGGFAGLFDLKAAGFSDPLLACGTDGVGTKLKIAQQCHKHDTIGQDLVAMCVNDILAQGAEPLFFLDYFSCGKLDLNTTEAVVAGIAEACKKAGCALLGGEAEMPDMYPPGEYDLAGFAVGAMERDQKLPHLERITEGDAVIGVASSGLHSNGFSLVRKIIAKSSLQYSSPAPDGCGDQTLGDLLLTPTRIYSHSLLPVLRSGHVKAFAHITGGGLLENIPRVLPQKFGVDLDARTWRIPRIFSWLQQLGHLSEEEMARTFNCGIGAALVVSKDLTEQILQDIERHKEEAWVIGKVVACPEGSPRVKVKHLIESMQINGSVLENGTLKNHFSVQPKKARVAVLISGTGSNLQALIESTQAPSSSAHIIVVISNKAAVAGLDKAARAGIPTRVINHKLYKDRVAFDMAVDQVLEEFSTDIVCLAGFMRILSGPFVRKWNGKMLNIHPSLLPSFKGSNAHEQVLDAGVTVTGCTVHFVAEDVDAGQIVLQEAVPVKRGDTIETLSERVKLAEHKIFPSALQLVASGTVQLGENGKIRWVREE
From the text: The representative compound of the present invention is 10-formyl-5,8,10-trideazatetrahydrofolic acid (FTDF) having the formula 1.

AICARFTase = AICARFTase (Homo sapiens, UniProt P31939); assay: Inhibition of AICARFTase; assay type: biochemical
AICARFTase, sequence (P31939 whole entry): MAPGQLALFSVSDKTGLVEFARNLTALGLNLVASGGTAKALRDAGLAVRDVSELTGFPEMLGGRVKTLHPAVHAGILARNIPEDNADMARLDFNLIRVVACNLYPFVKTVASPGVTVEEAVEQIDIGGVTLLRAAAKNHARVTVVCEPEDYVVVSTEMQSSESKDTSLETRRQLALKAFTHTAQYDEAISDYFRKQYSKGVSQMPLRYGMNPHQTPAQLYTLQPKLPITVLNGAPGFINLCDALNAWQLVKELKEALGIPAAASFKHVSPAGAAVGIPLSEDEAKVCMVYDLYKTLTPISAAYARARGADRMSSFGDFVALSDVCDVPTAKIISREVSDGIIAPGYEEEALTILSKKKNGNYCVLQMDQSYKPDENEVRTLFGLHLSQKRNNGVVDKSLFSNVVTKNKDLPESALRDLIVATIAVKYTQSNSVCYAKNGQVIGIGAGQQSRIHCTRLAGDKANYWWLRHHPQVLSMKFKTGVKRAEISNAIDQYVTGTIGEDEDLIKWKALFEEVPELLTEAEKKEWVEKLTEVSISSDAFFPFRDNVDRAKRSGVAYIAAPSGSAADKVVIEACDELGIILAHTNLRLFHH

Nc1nc(N)c(CCCNc2ccc(C(=O)N[C@@H](CCC(=O)O)C(=O)O)cc2)c(=O)[nH]1 [Compound 5-DACTHF, 5-deazaacyclotetrahydrofolic acid, reference compound]
IC50 [1]: 2.5 µM

Nc1nc2c(c(=O)[nH]1)CC(CCc1ccc(C(=O)N[C@@H](CCC(=O)O)C(=O)O)cc1)CN2 (some centres unmarked) [DDATHF, 5,10-dideazatetrahydrofolic acid, reference compound]
IC50 (AICARFTase): > 500 µM

Nc1nc2ccc(CC(C=O)c3ccc(C(=O)N[C@@H](CCC(=O)O)C(=O)O)cc3)cc2c(=O)[nH]1 (some centres unmarked) [FTDF, 10-Formyl-5,8,10-trideazafolic Acid]
IC50 (AICARFTase; read-out: I50 (μM) AICARFTase): 18 µM | potency against GARFTase relative to DDATHF ([1]; hog liver GARFTase, identical experimental conditions): almost twice as potent | IC50 [1]: 0.15 µM
